This assay relates to BDF1 mice, L1210 6-MP/6-TG resistant leukemia ip, survival T/C. As to the kind of experiment: NCI In Vivo Anticancer Drug Screen. Data for tumor model L1210 Leukemia resistant to 6-MP and 6-Thioguanine; NSC 755, NSC 752 (intraperitoneal) in B6D2F1 (BDF1) mice. The following applies: endpoint: mean survival time, higher = longer survival. The method, then: The antitumor activity of compounds was measured in mice bearing transplantable tumors. Survival or tumor size were measured and the results are expressed as the measurement made in the treated group (T) divided by the measurement made in the vehicle treated control group (C). The tumor model used in this assay is L1210 Leukemia resistant to 6-MP and 6-Thioguanine; NSC 755, NSC 752 (intraperitoneal) in B6D2F1 (BDF1) mice

Setting [1] is: dose: 20.0 mg/kg/injection, schedule: Q01DX Z (ip), vehicle: carboxymethylcellulose (CMC).
The mark [2] stands for this setting: dose: 25.0 mg/kg/injection, schedule: Q01DX Z (ip), vehicle: carboxymethylcellulose (CMC).
[3] abbreviates: dose: 100.0 mg/kg/injection, schedule: Q01DX Z (ip), vehicle: carboxymethylcellulose (CMC).

Each structure is given as a SMILES string. “And” between values parts separate entries of the source, which are not always exact repeats. Identical values can stand only once. Inconclusive results and toxic doses are left out.

These results are taken from PubChem BioAssay AID308 (DTP/NCI, 2004).

Turning to `S=c1nc[nH]c2nc[nH]c12`, the T/C by setting is: (dose: 3.5 mg/kg/injection, schedule: Q01DX Z (ip), vehicle: carboxymethylcellulose (CMC)) 99 % of control; (dose: 5.0 mg/kg/injection, schedule: Q01DX015 (ip), vehicle: carboxymethylcellulose (CMC)) 93 % of control and 101 % of control; (dose: 7.0 mg/kg/injection, schedule: Q01DX Z (ip), vehicle: carboxymethylcellulose (CMC)) 100 % of control and 103 % of control and 106 % of control; (dose: 8.0 mg/kg/injection, schedule: Q01DX015 (ip), vehicle: carboxymethylcellulose (CMC)) 94 % of control and 97 % of control and 103 % of control; (dose: 10.0 mg/kg/injection, schedule: Q01DX015 (ip), vehicle: alkali diluted with saline) 96 % of control; (dose: 12.0 mg/kg/injection, schedule: Q01DX015 (ip), vehicle: carboxymethylcellulose (CMC)) 90 % of control and 95 % of control and 96 % of control. Besides, the T/C is, setting by setting: (dose: 12.0 mg/kg/injection, schedule: Q01DX Z (ip), vehicle: carboxymethylcellulose (CMC)) 110 % of control; (dose: 12.5 mg/kg/injection, schedule: Q01DX Z (ip), vehicle: carboxymethylcellulose (CMC)) 95 % of control; (dose: 14.0 mg/kg/injection, schedule: Q01DX Z (ip), vehicle: carboxymethylcellulose (CMC)) 96 % of control and 98 % of control and 104 % of control; (dose: 16.0 mg/kg/injection, schedule: Q01DX015 (ip), vehicle: carboxymethylcellulose (CMC)) 95 % of control; (dose: 18.0 mg/kg/injection, schedule: Q01DX015 (ip), vehicle: carboxymethylcellulose (CMC)) 93 % of control and 100 % of control; (dose: 19.0 mg/kg/injection, schedule: Q01DX Z (ip), vehicle: carboxymethylcellulose (CMC)) 123 % of control. Besides, the T/C (dose: 20.0 mg/kg/injection, schedule: Q01DX015 (ip), vehicle: alkali diluted with saline) was 103 % of control; the T/C (dose: 20.0 mg/kg/injection, schedule: Q01DX015 (ip), vehicle: carboxymethylcellulose (CMC)) is 96 % of control; the T/C under setting [1] is 101 % of control; the T/C (dose: 24.0 mg/kg/injection, schedule: Q01DX015 (ip), vehicle: carboxymethylcellulose (CMC)) is 93 % of control; the T/C under setting [2] was 88 % of control; the T/C (dose: 26.0 mg/kg/injection, schedule: Q01DX001 (ip), vehicle: alkali diluted with saline) is 97 % of control and 101 % of control. Besides, the T/C was 96 % of control and 100 % of control (dose: 27.0 mg/kg/injection, schedule: Q01DX015 (ip), vehicle: carboxymethylcellulose (CMC)); 96 % of control and 98 % of control (2×) (dose: 40.0 mg/kg/injection, schedule: Q01DX001 (ip), vehicle: alkali diluted with saline); 102 % of control and 109 % of control (dose: 40.0 mg/kg/injection, schedule: Q01DX001 (ip), vehicle: carboxymethylcellulose (CMC)); 103 % of control (dose: 40.0 mg/kg/injection, schedule: Q01DX015 (ip), vehicle: alkali diluted with saline); 92 % of control and 95 % of control (dose: 40.0 mg/kg/injection, schedule: Q01DX015 (ip), vehicle: carboxymethylcellulose (CMC)); 103 % of control (dose: 42.0 mg/kg/injection, schedule: Q01DX Z (ip), vehicle: carboxymethylcellulose (CMC)). In addition, the T/C is 91 % of control (dose: 50.0 mg/kg/injection, schedule: Q01DX Z (ip), vehicle: carboxymethylcellulose (CMC)); 93 % of control and 97 % of control (dose: 56.0 mg/kg/injection, schedule: Q01DX Z (ip), vehicle: carboxymethylcellulose (CMC)); 100 % of control (dose: 59.0 mg/kg/injection, schedule: Q01DX001 (ip), vehicle: carboxymethylcellulose (CMC)); 96 % of control (2×) and 106 % of control (dose: 60.0 mg/kg/injection, schedule: Q01DX001 (ip), vehicle: alkali diluted with saline); 108 % of control (dose: 60.0 mg/kg/injection, schedule: Q01DX001 (ip), vehicle: carboxymethylcellulose (CMC)); 94 % of control (dose: 60.0 mg/kg/injection, schedule: Q01DX010 (ip), vehicle: alkali diluted with saline). In addition, the T/C by setting is: (dose: 90.0 mg/kg/injection, schedule: Q01DX001 (ip), vehicle: alkali diluted with saline) 87 % of control and 97 % of control and 103 % of control; (dose: 90.0 mg/kg/injection, schedule: Q01DX001 (ip), vehicle: carboxymethylcellulose (CMC)) 99 % of control and 102 % of control; under setting [3], 91 % of control; (dose: 135.0 mg/kg/injection, schedule: Q01DX001 (ip), vehicle: alkali diluted with saline) 96 % of control and 103 % of control and 105 % of control; (dose: 150.0 mg/kg/injection, schedule: Q01DX001 (ip), vehicle: carboxymethylcellulose (CMC)) 96 % of control; (dose: 202.0 mg/kg/injection, schedule: Q01DX001 (ip), vehicle: alkali diluted with saline) 99 % of control and 100 % of control and 102 % of control. For the same compound, the T/C (dose: 203.0 mg/kg/injection, schedule: Q01DX001 (ip), vehicle: carboxymethylcellulose (CMC)) was 95 % of control.
On to `CN(C)c1nc(N(C)C)nc(N(C)C)n1`, for which the T/C (dose: 4.3 mg/kg/injection, schedule: Q01DX Z (ip), vehicle: other) is 101 % of control; the T/C (dose: 8.7 mg/kg/injection, schedule: Q01DX Z (ip), vehicle: other) is 111 % of control; the T/C (dose: 17.5 mg/kg/injection, schedule: Q01DX Z (ip), vehicle: other) was 109 % of control; the T/C (dose: 35.0 mg/kg/injection, schedule: Q01DX Z (ip), vehicle: other) is 111 % of control; the T/C (dose: 50.0 mg/kg/injection, schedule: Q01DX Z (ip), vehicle: other) is 110 % of control; the T/C (dose: 100.0 mg/kg/injection, schedule: Q01DX Z (ip), vehicle: other) is 98 % of control.
Regarding `CCCSc1nc(N)nc2nc[nH]c12`, the T/C reads like this: (dose: 12.0 mg/kg/injection, schedule: Q01DX Z (ip), vehicle: saline) 114 % of control; (dose: 25.0 mg/kg/injection, schedule: Q01DX Z (ip), vehicle: saline) 106 % of control; (dose: 50.0 mg/kg/injection, schedule: Q01DX Z (ip), vehicle: saline) 107 % of control; (dose: 100.0 mg/kg/injection, schedule: Q01DX Z (ip), vehicle: saline) 103 % of control; (dose: 150.0 mg/kg/injection, schedule: Q01DX Z (ip), vehicle: carboxymethylcellulose (CMC)) 91 % of control.
On to `Cc1c(O)ccc(=O)n1O`, for which the T/C (dose: 73.0 mg/kg/injection, schedule: Q01DX Z (ip), vehicle: other) is 108 % of control and the T/C (dose: 165.0 mg/kg/injection, schedule: Q01DX Z (ip), vehicle: other) was 103 % of control.
In the case of `CC/C(=C(/CC)c1ccc(O)cc1)c1ccc(O)cc1`, the T/C is 90 % of control (dose: 37.5 mg/kg/injection, schedule: Q01DX Z (sc), vehicle: steriod suspending solution); 95 % of control (dose: 50.0 mg/kg/injection, schedule: Q01DX Z (sc), vehicle: steriod suspending solution); 94 % of control (dose: 75.0 mg/kg/injection, schedule: Q01DX Z (sc), vehicle: steriod suspending solution); 94 % of control (dose: 100.0 mg/kg/injection, schedule: Q01DX Z (sc), vehicle: steriod suspending solution).
`C1CN1c1nc(N2CC2)nc(N2CC2)n1`: the T/C reads like this: (dose: 0.25 mg/kg/injection, schedule: Q01DX Z (ip), vehicle: saline) 118 % of control; (dose: 1.0 mg/kg/injection, schedule: Q01DX Z (ip), vehicle: saline) 109 % of control.
For `O=c1[nH]c(=O)n(C2CC(O)C(CO)O2)cc1I` (stereo not given), the T/C was 108 % of control under setting [1]; 121 % of control under setting [2]; 95 % of control (dose: 30.0 mg/kg/injection, schedule: Q01DX Z (ip), vehicle: carboxymethylcellulose (CMC)); 87 % of control (dose: 40.0 mg/kg/injection, schedule: Q01DX Z (ip), vehicle: carboxymethylcellulose (CMC)); 108 % of control (dose: 60.0 mg/kg/injection, schedule: Q01DX Z (ip), vehicle: carboxymethylcellulose (CMC)); 182 % of control (dose: 75.0 mg/kg/injection, schedule: Q01DX Z (ip), vehicle: carboxymethylcellulose (CMC)). Also, the T/C is, setting by setting: under setting [3], 154 % of control; (dose: 125.0 mg/kg/injection, schedule: Q01DX Z (ip), vehicle: carboxymethylcellulose (CMC)) 115 % of control; (dose: 250.0 mg/kg/injection, schedule: Q01DX Z (ip), vehicle: carboxymethylcellulose (CMC)) 100 % of control; (dose: 375.0 mg/kg/injection, schedule: Q01DX Z (ip), vehicle: carboxymethylcellulose (CMC)) 93 % of control.
With `C[C@H](N)C(=O)N[C@@H]1[C@H]2C(=C(O)C[C@@H](O)[C@@H]2O)C(=O)O[C@@H]1C`, the T/C was 152 % of control (dose: 330.0 mg/kg/injection, schedule: Q01DX015 (ip), vehicle: carboxymethylcellulose (CMC)); 189 % of control (dose: 500.0 mg/kg/injection, schedule: Q01DX Z (ip), vehicle: saline); 185 % of control (dose: 750.0 mg/kg/injection, schedule: Q01DX Z (ip), vehicle: saline); 100 % of control (dose: 2000.0 mg/kg/injection, schedule: Q01DX Z (ip), vehicle: saline).
